Patent publication US20240368122A1, “JAK2 INHIBITORS AND METHODS OF USE THEREOF” (RELAY THERAPEUTICS, INC., priority 2021, published 2024)
pIC50, pKd: −log10 of the molar value. Like-named read-outs stand apart in the source and are kept apart here.

Columns and labels:
[1] = tested on: TF1 JAK2 V617F STAT5 reporter; assay: Cellular TF1 STAT5 assay (luciferase reporter), JAK2 V617F; assay type: cell-based; details: read-out: Cell PD TF1 V617F STAT5 (IC50)
Method in brief: (§1)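 Compounds were dispensed as 1000× DMSO stocks (10 mM top, 1:3 steps), then V617F JAK2 TF1 cells carrying a STAT3 or STAT5 luciferase reporter were added. After 18-20 h at 37 °C, ONE-glo reagent was added and luminescence measured.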

[2] = biological target: T1, JAK2 JH2 WT (V536-D812) [W659A, W777A, F794H solubilizing mutations] (Homo sapiens, UniProt O60674, F794H/W659A/W777A); assay: Surface Plasmon Resonance (SPR) binding assay, JAK2 JH2 domain
T1 construct: **JAK2 JH2 WT (V536-D812) [W659A, W777A, F794H solubilizing mutations]; C-thrombin-avi-His6; thrombin cleavage site (C); His6 (C); purchased Biortus
Method in brief: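 Kinetics came from 1:1 fits of single-cycle runs at 20 °C: four 3-fold dilutions from 5 uM for JH1 or 500 nM for JH2, 60 s association, and 300 s or 1200 s dissociation respectively. Protein was freshly captured per compound in the presence of 10 uM stabilizer compound, with running buffer of pH 7.5 HEPES/NaCl/glycerol/DTT plus 2% DMSO.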

[3] = tested on: TF1 JAK2 V617F STAT3 reporter; assay: Cellular TF1 STAT3 assay (luciferase reporter), JAK2 V617F; assay type: cell-based; details: read-out: Cell PD-TF1 JAK2 V617F STAT3 (IC50)
Method in brief: as §1

[4] = Homo sapiens, TF-1, TF1 cells, JAK2 V617F

T1 sequence (O60674 536-812 W659A/W777A/F794H): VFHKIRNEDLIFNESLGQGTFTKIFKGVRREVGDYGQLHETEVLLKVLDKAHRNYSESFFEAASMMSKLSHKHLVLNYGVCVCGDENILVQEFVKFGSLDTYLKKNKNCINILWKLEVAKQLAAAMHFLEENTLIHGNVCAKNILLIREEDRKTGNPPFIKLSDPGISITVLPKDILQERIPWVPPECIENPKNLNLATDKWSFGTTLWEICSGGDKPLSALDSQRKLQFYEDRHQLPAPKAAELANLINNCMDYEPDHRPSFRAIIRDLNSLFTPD

CNC(=O)c1nnc(NC(=O)C2CC2)cc1Nc1cccc(-c2cnc(C(=O)NCc3cccn(C)c3=O)cn2)c1OC [Compound 7]
pIC50 ([1]; TF1 JAK2 V617F): 4.00 to 5.30 | pKd ([2]; SPR, JAK2 JH2 domain): 8.00 to 11.00 | pIC50 ([3]; TF1 JAK2 V617F): 5.30 to 6.30

CNC(=O)c1nnc(NC(=O)C2CC2)cc1Nc1cccc(-c2cnn(C3(CC#N)CN(Cc4ccccn4)C3)c2)c1OC [Compound 38]
pIC50 ([1]; TF1 JAK2 V617F): 4.00 to 5.30 | pKd ([2]; SPR, JAK2 JH2 domain): 7.30 to 8.00 | pIC50 ([3]; TF1 JAK2 V617F): 5.30 to 6.30

CNC(=O)c1nnc(NC(=O)C2CC2)cc1Nc1ccc(C)c(-c2ccc(C(=O)N(C)Cc3nccs3)nc2)c1OC [Compound 180]
pIC50 ([1]; TF1 JAK2 V617F): 5.30 to 6.30 | pKd ([2]; SPR, JAK2 JH2 domain): 8.00 to 11.00 | pIC50 ([3]; TF1 JAK2 V617F): 5.30 to 6.30

CNC(=O)c1nnc(NC(=O)C2CC2)cc1Nc1cccc(-c2ccc(C(=O)N(C)C[C@@H]3CCCO3)nc2)c1OC (single isomer, unassigned) [Compound 140]
pIC50 ([1]; TF1 JAK2 V617F): 4.00 to 5.30 | pKd ([2]; SPR, JAK2 JH2 domain): 7.30 to 8.00 | pIC50 ([3]; TF1 JAK2 V617F): 4.00 to 5.30

CNC(=O)c1nnc(NC(=O)C2CC2)cc1Nc1cccc(-c2cnn(C3CN(Cc4ncn(C)n4)C3)c2)c1OC [Compound 104]
pIC50 ([1]; TF1 JAK2 V617F): 5.30 to 6.30 | pKd ([2]; SPR, JAK2 JH2 domain): 8.00 to 11.00 | pIC50 ([3]; TF1 JAK2 V617F): 5.30 to 6.30

CNC(=O)c1nnc(NC(=O)C2CC2)cc1Nc1cccc(-c2cnn(C3CC(Oc4cccc(C#N)n4)C3)c2)c1OC (stereo not drawn) [Compound 372]
pIC50 [1, 4]: 5.30 to 6.30 | pKd [2]: 8.00 to 11.00 | pIC50 [3, 4]: 5.30 to 6.30

CNC(=O)c1nnc(NC(=O)C2CC2)cc1Nc1cccc(-c2ccc(C3CN(Cc4cc(C#N)ccn4)C3)c(OC)c2)c1OC [Compound 360]
pIC50 [1, 4]: 5.30 to 6.30 | pKd [2]: 6.30 to 7.30 | pIC50 [3, 4]: 4.00 to 5.30

CNC(=O)c1nnc(NC(=O)C2CC2)cc1Nc1cccc(-c2cnn(C3CN(Cc4cccc(NC(C)=O)n4)C3)c2)c1OC [Compound 260]
pIC50 [1, 4]: 6.30 to 7.30 | pKd [2]: 8.00 to 11.00 | pIC50 [3, 4]: 6.30 to 7.30

CNC(=O)c1nnc(NC(=O)C2CC2)cc1Nc1cccc(-c2ccc(C(=O)N(C)Cc3ncc(C#N)s3)nc2)c1OC [Compound 178]
pIC50 ([1]; TF1 JAK2 V617F): 4.00 to 5.30 | pKd ([2]; SPR, JAK2 JH2 domain): 8.00 to 11.00 | pIC50 ([3]; TF1 JAK2 V617F): 4.00 to 5.30

CNC(=O)c1nnc(NC(=O)C2CC2)cc1Nc1cccc(-c2cn(C3CN(Cc4cccc(C(F)F)n4)C3)cn2)c1OC [Compound 341]
pIC50 [1, 4]: 6.30 to 7.30 | pKd [2]: 8.00 to 11.00 | pIC50 [3, 4]: 6.30 to 7.30

CNC(=O)c1nnc(NC(=O)C2CC2)cc1Nc1cccc(-c2ccc(C(=O)N3CCc4cccnc4CC3)nc2)c1OC [Compound 196]
pIC50 [1, 4]: 5.30 to 6.30 | pKd [2]: 8.00 to 11.00 | pIC50 [3, 4]: 5.30 to 6.30

CNC(=O)c1nnc(NC(=O)C2CC2)cc1Nc1cccc(-c2ccc(C(=O)N(C)Cc3csc(C)n3)nc2)c1OC [Compound 174]
pIC50 ([1]; TF1 JAK2 V617F): 6.30 to 7.30 | pKd ([2]; SPR, JAK2 JH2 domain): 8.00 to 11.00 | pIC50 ([3]; TF1 JAK2 V617F): 6.30 to 7.30

CNC(=O)c1nnc(NC(=O)C2CC2)cc1Nc1cccc(-c2cnn(C3CN(Cc4cccc5nncn45)C3)c2)c1OC [Compound 313]
pIC50 [1, 4]: 5.30 to 6.30 | pKd [2]: 7.30 to 8.00 | pIC50 [3, 4]: 5.30 to 6.30

[2H]C([2H])(c1cccc(C#N)n1)N1CC(n2cc(-c3cccc(Nc4cc(NC(=O)C5CC5)nnc4C(=O)NC)c3OC)cn2)C1 [Compound 409]
pIC50 [1, 4]: 6.30 to 7.30 | pKd ([2]; SPR, JAK2 JH2 domain): 8.00 to 11.00 | pIC50 [3, 4]: 6.30 to 7.30

CNC(=O)c1nnc(NC(=O)C2CC2)cc1Nc1cccc(-c2ccc(C(=O)N(Cc3cccn(C)c3=O)CC(F)F)nc2)c1OC [Compound 16]
pIC50 ([1]; TF1 JAK2 V617F): 4.00 to 5.30 | pKd ([2]; SPR, JAK2 JH2 domain): 8.00 to 11.00 | pIC50 ([3]; TF1 JAK2 V617F): 5.30 to 6.30

CNC(=O)c1nnc(NC(=O)C2CC2)cc1Nc1cccc(-c2ccc(C(=O)N(C)Cc3cc(S(C)(=O)=O)ccn3)nc2)c1OC [Compound 72]
pIC50 ([1]; TF1 JAK2 V617F): 6.30 to 7.30 | pKd ([2]; SPR, JAK2 JH2 domain): 8.00 to 11.00 | pIC50 ([3]; TF1 JAK2 V617F): 6.30 to 7.30

CNC(=O)c1nnc(NC(=O)C2CC2)cc1Nc1cccc(-c2ccc(C(=O)N(C)Cc3cc(C#N)ccn3)nc2OC)c1OC [Compound 20]
pIC50 ([1]; TF1 JAK2 V617F): 5.30 to 6.30 | pKd ([2]; SPR, JAK2 JH2 domain): 8.00 to 11.00 | pIC50 ([3]; TF1 JAK2 V617F): 5.30 to 6.30

CNC(=O)c1nnc(NC(=O)C2CC2)cc1Nc1cccc(-c2ccc(C(=O)N(C)C[C@@H]3CCS(=O)(=O)C3)nc2)c1OC (single isomer, unassigned) [Compound 209]
pIC50 [1, 4]: 4.00 to 5.30 | pKd [2]: 7.30 to 8.00 | pIC50 [3, 4]: 4.00 to 5.30

CNC(=O)c1nnc(NC(=O)C2CC2)cc1Nc1cccc(-c2cn([C@@H]3CN(Cc4cccc(C)n4)[C@H]3C(OC)OC)nn2)c1OC (racemic) [Compound 247]
pIC50 [1, 4]: 5.30 to 6.30 | pKd [2]: 8.00 to 11.00 | pIC50 [3, 4]: 5.30 to 6.30

CNC(=O)c1nnc(NC(=O)C2CC2)cc1Nc1cccc(-c2cnn([C@@H]3CN(Cc4cccc(C#N)n4)[C@H]3C)c2)c1OC [Compound 310]
pIC50 [1, 4]: 5.30 to 6.30 | pKd [2]: 8.00 to 11.00 | pIC50 [3, 4]: 5.30 to 6.30

CNC(=O)c1nnc(NC(=O)C2CC2)cc1Nc1cccc(-c2cnn(C3CN(Cc4cccc(C5(O)COC5)n4)C3)c2)c1OC [Compound 382]
pIC50 [1, 4]: 6.30 to 7.30 | pKd [2]: 8.00 to 11.00 | pIC50 [3, 4]: 6.30 to 7.30

CNC(=O)c1nnc(NC(=O)C2CC2)cc1Nc1cccc(-c2cnn(C3CN(Cc4cccc(OC)n4)C3)c2)c1OC [Compound 107]
pIC50 ([1]; TF1 JAK2 V617F): 6.30 to 7.30 | pKd ([2]; SPR, JAK2 JH2 domain): 8.00 to 11.00 | pIC50 ([3]; TF1 JAK2 V617F): 6.30 to 7.30

CNC(=O)c1nnc(NC(=O)C2CC2)cc1Nc1cccc(-c2ccc(C(=O)N(C)CC(F)F)nc2)c1OC [Compound 114]
pIC50 ([1]; TF1 JAK2 V617F): 4.00 to 5.30 | pKd ([2]; SPR, JAK2 JH2 domain): 7.30 to 8.00 | pIC50 ([3]; TF1 JAK2 V617F): 4.00 to 5.30

CNC(=O)c1nnc(NC(=O)C2CC2)cc1Nc1cccc(-c2cc(C3CN(Cc4ccccn4)C3)nn2C)c1OC [Compound 189]
pIC50 ([1]; TF1 JAK2 V617F): 4.00 to 5.30 | pKd ([2]; SPR, JAK2 JH2 domain): 7.30 to 8.00 | pIC50 ([3]; TF1 JAK2 V617F): 4.00 to 5.30

CNC(=O)c1nnc(NC(=O)C2CC2)cc1Nc1cccc(-c2cnn(C3CN(Cc4cccc(C5(C)COC5)n4)C3)c2)c1OC [Compound 369]
pIC50 [1, 4]: 6.30 to 7.30 | pKd [2]: 8.00 to 11.00 | pIC50 [3, 4]: 6.30 to 7.30

CNC(=O)c1nnc(NC(=O)C2CC2)cc1Nc1ccc(C)c(-c2cnn(C3CN(Cc4ccccn4)C3)c2)c1OC [Compound 67]
pIC50 ([1]; TF1 JAK2 V617F): 5.30 to 6.30 | pKd ([2]; SPR, JAK2 JH2 domain): 8.00 to 11.00 | pIC50 ([3]; TF1 JAK2 V617F): 5.30 to 6.30

CNC(=O)c1nnc(NC(=O)C2CC2)cc1Nc1cccc(-c2cnn(C3CN(Cc4cccc(C#CC5CC5)n4)C3)c2)c1OC [Compound 241]
pIC50 [1, 4]: 6.30 to 7.30 | pKd [2]: 8.00 to 11.00 | pIC50 [3, 4]: 6.30 to 7.30

CNC(=O)c1nnc(NC(=O)C2CC2)cc1Nc1cccc(-c2cn([C@H]3CN(Cc4cccc(Cl)n4)[C@@H]3C)nn2)c1OC (stereo in doubt) [Compound 236]
pIC50 [1, 4]: 6.30 to 7.30 | pKd [2]: 8.00 to 11.00 | pIC50 [3, 4]: 6.30 to 7.30

CNC(=O)c1nnc(NC(=O)C2CC2)cc1Nc1cccc(-c2ccc(C(=O)N(C)Cc3cc(C#N)cnn3)nc2)c1OC [Compound 332]
pIC50 [1, 4]: 5.30 to 6.30 | pKd [2]: 8.00 to 11.00 | pIC50 [3, 4]: 5.30 to 6.30

CNC(=O)c1nnc(NC(=O)C2CC2)cc1Nc1cccc(-c2ccc(C(=O)N(C)Cc3cn(C)nc3C(F)F)nc2)c1OC [Compound 222]
pIC50 [1, 4]: 6.30 to 7.30 | pKd [2]: 8.00 to 11.00 | pIC50 [3, 4]: 6.30 to 7.30

CNC(=O)c1nnc(NC(=O)C2CC2)cc1Nc1cccc(-c2cnn(C3CN(Cc4cccc(OC(F)F)n4)C3)c2)c1OC [Compound 243]
pIC50 [1, 4]: 6.30 to 7.30 | pKd [2]: 8.00 to 11.00 | pIC50 [3, 4]: 6.30 to 7.30

CNC(=O)c1nnc(NC(=O)C2CC2)cc1Nc1ccc(C)c(-c2cc(C3CCN(Cc4cc(C#N)ccn4)CC3)n(C)n2)c1OC [Compound 186]
pIC50 ([1]; TF1 JAK2 V617F): 4.00 to 5.30 | pKd ([2]; SPR, JAK2 JH2 domain): 6.30 to 7.30 | pIC50 ([3]; TF1 JAK2 V617F): 4.00 to 5.30

CNC(=O)c1nnc(NC(=O)C2CC2)cc1Nc1cccc(-c2cnn(C3CN(Cc4cccc(C(C)O)n4)C3)c2)c1OC (stereo not drawn) [Compound 306]
pIC50 [1, 4]: 6.30 to 7.30 | pKd [2]: 8.00 to 11.00 | pIC50 [3, 4]: 6.30 to 7.30

CNC(=O)c1nnc(NC(=O)C2CC2)cc1Nc1cccc(-c2cnn(C3CN(Cc4ccc(C#N)cn4)C3)c2)c1OC [Compound 249]
pIC50 [1, 4]: 4.00 to 5.30 | pKd [2]: 7.30 to 8.00 | pIC50 [3, 4]: 4.00 to 5.30

CNC(=O)c1nnc(NC(=O)C2CC2)cc1Nc1cccc(-c2ccc(C(=O)N(C)Cc3cc(S(C)(=O)=O)ccn3)cc2)c1OC [Compound 73]
pIC50 ([1]; TF1 JAK2 V617F): 6.30 to 7.30 | pKd ([2]; SPR, JAK2 JH2 domain): 8.00 to 11.00 | pIC50 ([3]; TF1 JAK2 V617F): 6.30 to 7.30
